Source: patent publication US12662498B2 (priority 2017, dated 2026)

Assay: ICH stability study of psilocybin batches (appearance, water content, purity, assay)
Conditions: for Chemical Purity By HPLC / Total Impurities / Water content by loss on drying: listed as GM764B

CN(C)CCc1c[nH]c2cccc(OP(=O)(O)O)c12 [Batch GM764B]
Appearance (T = 0): An off white solid. | Assay by 1H-NMR (T = 0): 97% ^w/w % w/w | Impurities by HPLC: RRT 0.86 (T = 0): 0.05% | Impurities by HPLC: RRT 1.46 (T = 0): 0.05% | Impurities by HPLC: RRT 1.59 (Psilocin) (T = 0): 0.37% | Chemical Purity By HPLC (T = 0): 99.24% | Total Impurities (T = 0): 0.76% | Water content by loss on drying (T = 0): 0.86% ^w/w % w/w | Appearance (T = 1 month, 2-8° C.): An off white solid. | Assay by 1H-NMR (T = 1 month, 2-8° C.): 99% ^w/w % w/w | Impurities by HPLC: RRT 0.86 (T = 1 month, 2-8° C.): 0.05% | Impurities by HPLC: RRT 1.46 (T = 1 month, 2-8° C.): 0.09% | Impurities by HPLC: RRT 1.59 (Psilocin) (T = 1 month, 2-8° C.): 0.35% | Chemical Purity By HPLC (T = 1 month, 2-8° C.): 99.24% | Total Impurities (T = 1 month, 2-8° C.): 0.76% | Water content by loss on drying (T = 1 month, 2-8° C.): 0.35% ^w/w % w/w | Appearance (T = 1 month, 25° C./60% RH): An off white solid. | Assay by 1H-NMR (T = 1 month, 25° C./60% RH): 98% ^w/w % w/w | Impurities by HPLC: RRT 0.86 (T = 1 month, 25° C./60% RH): 0.05% | Impurities by HPLC: RRT 1.46 (T = 1 month, 25° C./60% RH): 0.10% | Impurities by HPLC: RRT 1.59 (Psilocin) (T = 1 month, 25° C./60% RH): 0.34% | Chemical Purity By HPLC (T = 1 month, 25° C./60% RH): 99.22% | Total Impurities (T = 1 month, 25° C./60% RH): 0.78% | Water content by loss on drying (T = 1 month, 25° C./60% RH): 0.20% ^w/w % w/w | Appearance (T = 1 month, 40° C./75% RH): An off white solid. | Assay by 1H-NMR (T = 1 month, 40° C./75% RH): 96% ^w/w % w/w | Impurities by HPLC: RRT 0.86 (T = 1 month, 40° C./75% RH): 0.05% | Impurities by HPLC: RRT 1.46 (T = 1 month, 40° C./75% RH): 0.10% | Impurities by HPLC: RRT 1.59 (Psilocin) (T = 1 month, 40° C./75% RH): 0.34% | Chemical Purity By HPLC (T = 1 month, 40° C./75% RH): 99.23% | Total Impurities (T = 1 month, 40° C./75% RH): 0.77% | Water content by loss on drying (T = 1 month, 40° C./75% RH): 0.14% ^w/w % w/w | Appearance (T = 3 months, 2-8° C.): An off white solid. | Assay by 1H-NMR (T = 3 months, 2-8° C.): 97% ^w/w % w/w | Impurities by HPLC: RRT 0.86 (T = 3 months, 2-8° C.): < 0.05% | Impurities by HPLC: RRT 1.46 (T = 3 months, 2-8° C.): 0.10% | Impurities by HPLC: RRT 1.59 (Psilocin) (T = 3 months, 2-8° C.): 0.37% | Chemical Purity By HPLC (T = 3 months, 2-8° C.): 99.31% | Total Impurities (T = 3 months, 2-8° C.): 0.69% | Water content by loss on drying (T = 3 months, 2-8° C.): 0.26% ^w/w % w/w | Appearance (T = 3 months, 25° C./60% RH): An off white solid. | Assay by 1H-NMR (T = 3 months, 25° C./60% RH): 99% ^w/w % w/w | Impurities by HPLC: RRT 0.86 (T = 3 months, 25° C./60% RH): < 0.05% | Impurities by HPLC: RRT 1.46 (T = 3 months, 25° C./60% RH): 0.09% | Impurities by HPLC: RRT 1.59 (Psilocin) (T = 3 months, 25° C./60% RH): 0.36% | Chemical Purity By HPLC (T = 3 months, 25° C./60% RH): 99.27% | Total Impurities (T = 3 months, 25° C./60% RH): 0.73% | Water content by loss on drying (T = 3 months, 25° C./60% RH): 0.08% ^w/w % w/w | Appearance (T = 3 months, 40° C./75% RH): An off white solid. | Assay by 1H-NMR (T = 3 months, 40° C./75% RH): 97% ^w/w % w/w | Impurities by HPLC: RRT 0.86 (T = 3 months, 40° C./75% RH): < 0.05% | Impurities by HPLC: RRT 1.46 (T = 3 months, 40° C./75% RH): 0.10% | Impurities by HPLC: RRT 1.59 (Psilocin) (T = 3 months, 40° C./75% RH): 0.37% | Chemical Purity By HPLC (T = 3 months, 40° C./75% RH): 99.26% | Total Impurities (T = 3 months, 40° C./75% RH): 0.74% | Water content by loss on drying (T = 3 months, 40° C./75% RH): 0.14% ^w/w % w/w
